{
  "source": "patent US11253495B2",
  "about": "“Pharmaceutical composition for treating excessive lactate production and acidemia” (priority 2018, dated 2022)",
  "key": {"[1]": {"tested_on": "cardiac arrest rat model", "test": "Cardiac arrest rat model with CPR: mortality, brain death score, serum lactate and pH, organ ATP", "type": "in vivo", "settings": "for Serum lactate: FIG. 2, 24 hours after ROSC or right before death, vs G1 saline, combination vs single agent; for Mortality at 24 hours after ROSC: rats, 7 min cardiac arrest, iv treatment 10 minutes after ROSC, doses of Table 1, n=8 each group"}, "[2]": {"tested_on": "phenformin intoxication", "test": "Phenformin intoxication and severe lactate acidemia in mice: survival time, serum lactate, serum pH", "type": "in vivo, CD-1 mice", "settings": "doses of Table 4, vs G1 saline; for Serum lactate at 1 hour after phenformin intoxication: FIG. 14, combination vs single agent; for Serum pH value at 1 hour after phenformin intoxication: FIG. 15", "method": "CD-1 mice (20-25 gram) were used. All mice were pre-treated according to the Table 4.\n10 minutes after treatment, intoxication of severe lactate acidemia was induced by injecting phenformin chloride (concentration 20 mg/ml) at dose of 200 mg/kg intraperitoneally. At 1 hour after phenformin injection, serum lactate and pH were measured."}, "[3]": {"tested_on": "focal cerebral ischemia rat model", "test": "Focal cerebral ischemia rat model (3 h MCA occlusion, 21 h reperfusion): behavioral deficit, infarct size, serum lactate, brain ATP", "type": "in vivo", "settings": "FIG. 10; 24 hours after ischemia; vs G1 saline; combination vs single agent", "method": "180-230 g CD rats were used. Ketamine/xylazine 30 mg/kg ip was given for anesthesia in each rat. A midline incision on the neck was made. The left common carotid artery, the external carotid artery (ECA) and the internal carotid artery (ICA) were exposed. The ECA was ligated and severed. Focal cerebral ischemia was produced by a 3.0 nylon suture that was advanced from the ECA to ICA to block the origin of left middle cerebral artery. The nylon suture was left in place to induce focal cerebral ischemia on left hemisphere supplied by middle cerebral artery. The ischemia lasted for 3 hours, the nylon suture was then removed to allow blood reperfusion for 21 hours.\nThis treatment time point is one hour before restoring blood flow (reperfusion).\nAt 24 hours after cerebral ischemia, each rat was evaluated for behavioral deficits. A score of 0-4 was used to assess the motor and behavioral changes. Score 0: No apparent deficits, Score 1: Contralateral forelimb flexion, Score 2: Decreased grip of the contralateral forelimb when the tail is pulled, Score 3: Spontaneous movement in all directions; contralateral circling only if pulled by tail and Score 4: Spontaneous contralateral circling.\nAt 24 hours after ischemia, blood samples were collected, serum lactate, was measured using blood chemistry analyzer. LDH was measured using colorimetric method.\nAfter blood samples collection, each rat was euthanized. The brain was excised. A small piece of the cortex in ischemic core was obtained, weighed and then homogenized at 0° C. The ATP content was evaluated using ATP content measurement using luciferase-luciferin luminescence detection assay.\nEach brain was immediately cut into 6 coronal sections (1 mm in thickness) and stained with 1% 2,3,5-triphenyltetrazolium chloride (TTC) in PBS solution at 37° C. for 10 minutes. The infarct size was identified as the non-TTC-stained area, the infarction percentage (%) was calculated by the ratio of area of infarction size to area of whole brain."}},
  "data": [
    {"smiles": "NC(=O)C(=O)[O-].[Na+]", "note": "[Sodium oxamate]", "values": [
      {"measurement": "Serum lactate", "setting": "[1]", "value": "reduce lactate production"},
      {"measurement": "Mortality at 24 hours after ROSC", "setting": "[1]", "value": "1 out of 8"},
      {"measurement": "Serum lactate at 1 hour after phenformin intoxication", "setting": "[2]", "value": "reduce lactate production"},
      {"measurement": "Serum lactate content", "setting": "[3]", "value": "reduce lactate production"}
    ]},
    {"smiles": "Cc1ncc(COP(=O)(O)O)c(C=O)c1O", "note": "[PLP, pyridoxal 5′-phosphate]", "values": [
      {"measurement": "Serum lactate", "setting": "[1]", "value": "reduce lactate production"},
      {"measurement": "Serum lactate at 1 hour after phenformin intoxication", "setting": "[2]", "value": "reduce lactate production"},
      {"measurement": "Serum lactate content", "setting": "[3]", "value": "reduce lactate production"}
    ]},
    {"smiles": "N#Cc1cc(NC(=O)C(=O)O)c(Cl)c(NC(=O)C(=O)O)c1.NC(CO)(CO)CO.NC(CO)(CO)CO", "note": "[Lodoxamide tromethamine]", "values": [
      {"measurement": "Serum lactate at 1 hour after phenformin intoxication", "setting": "[2]", "value": "reduce lactate production"}
    ]},
    {"smiles": "O=C([O-])CC(=O)C(=O)O.[Na+]", "note": "[oxaloacetate, Sodium oxaloacetate]", "values": [
      {"measurement": "Serum lactate", "setting": "[1]", "value": "reduce lactate production"},
      {"measurement": "Serum lactate at 1 hour after phenformin intoxication", "setting": "[2]", "value": "reduce lactate production"},
      {"measurement": "Serum lactate content", "setting": "[3]", "value": "reduce lactate production"}
    ]},
    {"smiles": "N[C@@H](CCC(=O)[O-])C(=O)[O-].[Na+].[Na+]", "note": "[Sodium glutamate]", "values": [
      {"measurement": "Serum lactate", "setting": "[1]", "value": "reduce lactate production"},
      {"measurement": "Mortality at 24 hours after ROSC", "setting": "[1]", "value": "1 out of 8"},
      {"measurement": "Serum lactate at 1 hour after phenformin intoxication", "setting": "[2]", "value": "reduce lactate production"},
      {"measurement": "Serum pH value at 1 hour after phenformin intoxication", "setting": "[2]", "value": "particularly effective"},
      {"measurement": "Serum lactate content", "setting": "[3]", "value": "reduce lactate production"}
    ]},
    {"smiles": "N[C@@H](CC(=O)[O-])C(=O)[O-].[Na+].[Na+]", "note": "[sodium aspartate, Sodium Aspartate]", "values": [
      {"measurement": "Serum lactate", "setting": "[1]", "value": "reduce lactate production"},
      {"measurement": "Serum lactate at 1 hour after phenformin intoxication", "setting": "[2]", "value": "reduce lactate production"},
      {"measurement": "Serum pH value at 1 hour after phenformin intoxication", "setting": "[2]", "value": "particularly effective"},
      {"measurement": "Serum lactate content", "setting": "[3]", "value": "reduce lactate production"}
    ]}
  ]
}
